Among the data in patent US20050118253A1, “Systemic delivery of serum stable plasmid lipid particles for cancer therapy” (Protiva Biotherapeutics, Inc., priority 1998, published 2005) are Tumor reduction values, retold here.

This experiment deals with MCA-207 fibrosarcoma tumor cells. Nature of the experiment: Growth of MCA-207 tumors (Example 11). It counts as in vivo, C57 mice. The settings on record: ganciclovir with empty liposomes (data not shown). The method, then: This example describes the treatment of tumors using the method of the invention. […] The general method is set out in FIG. 8.
24 female C57 mice were seeded with 100,000 MCA-207 fibrosarcoma tumor cells (provided by S. Rosenberg, National Cancer Institute, Frederick/Bethesda, MD) by intra-dermal injection on day zero. The tumor cells had been cultivated and prepared according to standard techniques using RPMI media with 10% Fetal Bovine Serum (see for example Current Protocols in Molecular Biology). Beginning on day 5, all animals were treated with the lipid/therapeutic nucleic acid formulation listed in the chart, supra. The formulation was delivered intravenously through the tail vein. 80 μg of pINEX-TK10 DNA were injected in a total volume of 200 μL. Treatments were administered on days 5, 7, 9, 11 and 13.
Beginning on day 5, all animals were treated with ganciclovir twice daily. 1 mg (˜50 mg/kg) were injected intra-peritoneally in a total volume of 200 μL PBS. Treatments continued twice daily for 12 days (see, FIG. 9(A)). Mice were monitored for tumor growth.

Consider `Nc1nc(O)c2ncn(COC(CO)CO)c2n1` [ganciclovir], for which the Tumor reduction result is reported as “no effect”.
